Laboratory results taken from patent US8557792B2, “Method of treating vitamin B12 deficiency” (priority 2007, dated 2013).

Legend:
[1] = Vitamin B12 absorption (plasma PK) after dosing Sprague-Dawley rats; assay type: in vivo; settings: male rats
Method: Tablets with four types of different ingredients were made as follows: (1) 8.8 mg of vitamin B12, 35 mg of SNAC were weighed, thoroughly mixed and made into a tablet for dosing on rat; (2) 8.8 mg of vitamin B12, 35 mg of SNAC and 5 mg of Capmul PG-8 were weighed, thoroughly mixed and made into a tablet; (3) 8.8 mg of vitamin B12, 35 mg of SNAC and 0.9 mg of Providone were weighed, thoroughly mixed and made into a tablet. Each of the four processes was repeated to produce more tablets.
Male Sprague-Dawley rats (325-350 g) were dosed with vitamin B12 intravenously (0.5 mg/kg) alone, or orally with the tablets made in Example 4 at a dose of 50 mg/kg vitamin B12 alone or in combination with SNAC at 200 mg/kg. Blood samples were collected at 0, 3, 10, 20, 30, 60, 120, 240 and 360 minutes post dosing. Plasma samples were analyzed for B12 by RIA. The model independent PK metrics obtained following B12-SNAC combination were compared to those obtained following B12 alone.

[2] = Serum cyanocobalamin pharmacokinetics after dosing human subjects; assay type: in vivo; settings: healthy male subjects, fasted, single intravenous dose 1 mg cyanocobalamin, 4 subjects
Method: Sixteen healthy male subjects were randomized to receive one of the following treatments: • (1) Treatment B: a single oral dose of cyanocobalamin/SNAC (5 mg cyanocobalamin/100 mg SNAC) administered in the fasted state as a tablet. (6 subjects); • (2) Treatment C: a single oral dose of cyanocobalamin alone (5 mg cyanocobalamin, VitaLabs, commercial) administered in the fasted state as a tablet. (6 subjects). • (3) Treatment D: a single intravenous dose of cyanocobalamin (1 mg cyanocobalamin) administered in the fasted state. (4 subjects). Each subject received a 1 mL intravenous injection of a 1 mg/mL (1000 μg/mL) solution resulting in a total dose of 1 mg cyanocobalamin.
The subjects were fasted overnight prior to dosing and had no liquids (including water) consumption for at least one hour before and after dosing. The oral forms of cyanocobalamin/SNAC tablets were administered in a single dose as tablets with 50 mL of plain water. Twenty-five blood samples were drawn for cyanocobalamin analyses at the following time points: within 30 minutes pre-dose and at Minutes 2, 5, 10, 20, 30, 40, 50, and at Hours 1, 1.5, 2, 3, 4, 5, 6, 7, 8, 9, 10, 11, 12, 14, 16, 20 and 24 post-dose.
Pharmacokinetic metrics was obtained following a model independent pharmacokinetic analysis of individual cyanocobalamin concentrations. Descriptive statistics was used to summarize the results.

[3] = IV, 0.5 mg/kg vitamin B12, N = 5
[4] = PO tablet, 50 mg/kg vitamin B12 (alone or with 200 mg/kg SNAC), N = 5

| Substance | AUC Mean [1, 3] | Tmax Mean [1, 3] | Cmax Mean ([1]; IV, 0.5 mg/kg vitamin B12, plasma B12 by RIA, N = 5) | AUC Mean [1, 4] | Tmax Mean [1, 4] | Cmax Mean ([1]; PO tablet, 50 mg/kg vitamin B12 (alone or with 200 mg/kg SNAC), plasma B12 by RIA, N = 5) | Mean Bioavailability ([1]; PO tablet, 50 mg/kg vitamin B12 (alone or with 200 mg/kg SNAC), versus IV) | Mean B12 peak concentration (Cmax) [2] | mean AUClast (0-24) [2] |
| --- | --- | --- | --- | --- | --- | --- | --- | --- | --- |
| Vitamin B12 | 65.84 µg·min/mL | 4.4 min | 2150 ng/mL | 28.72 µg·min/mL | 52 min | 140 ng/mL | 0.42% |  |  |
| cyanocobalamin |  |  |  |  |  |  |  | 221.287 ± 80.248 ng/mL | 215.391 ± 44.602 ng·h/mL |
